This is an account of results in patent US10588934B2, “Opioid peptide” (priority 2014, dated 2020).

Like-named read-outs stand apart in the source and are kept apart here. Ends that are not written are not given here.

Data set [1] deals with Swiss mice. The class given is in vivo, Mus musculus. The protocol:
(§1) In vivo analyzes: Tests were carried out on Swiss mice of the Mus musculus species, in which nociception tests (hot plate and tail removal test) were used according to Le Bars et al. (2001). Injections were administered via intraperitoneal (IP). Doses were based upon dose and molaridade of the morphine (10 mg/kg animal).
(§2) FIGS. 1,2,3 and 4 represent the raw data obtained from the experiments after statistical analysis. The symbols (*, **, #) indicate the beginning of the statistically significant activity (S) or the statistically non-significant differences (NS). Analyzes of opioid activity were performed in two classical models of studies for this activity: Tail Flick or Hot Plate test.

Data set [2] has as its system Swiss mice. Nature of the data set: Tail flick (tail removal) nociception test. The class given is in vivo, Mus musculus. To be noted: for activity profile of the group given substance+naloxone compared with saline: with serial naloxone 4 mg/kg. The protocol:
as §1, §2

A further data set deals with trypsin. To be noted: 37° C., 15 minutes to 4 hours, MALDI.

Method for trypsin: Representation of the fragments obtained at the different incubation times with the enzyme trypsin. Analysis performed by mass spectrometry, MALDI. The first spectrum, marked with the letter A, refers to the time of 15 minutes; The second spectrum marked with the letter B indicates the time of 30 minutes; C indicates the time of 1 hour; D indicates the time of 2 hours; E indicates the time of 4 hours and, finally, F is the control peptide (SEQ ID NO: 2).

Consider `C=CCN1CC[C@]23c4c5ccc(O)c4O[C@H]2C(=O)CC[C@@]3(O)[C@H]1C5` [naloxone, reference compound], for which the “activity profile of naloxone alone compared with saline” value with Swiss mice [1] (hot plate, naloxone 4 mg/kg) is “no significant differences in activity profile”; in the data set with Swiss mice [2] (tail-flick, naloxone 4 mg/kg), “no significant differences in activity profile”.
For the compound “SEQ ID NO: 1: opioid peptide of formula TyrProPhe-X1-TrpGlyGly-X2-ProPro (X1 Gly or Lys; X2 Ile or Val); exact sequence not printed in the text (YPFGWGGIPP)”, the “time from which there were no statistically significant differences from morphine” value in the data set on Swiss mice [1] (hot plate, IP, morphine 10 mg/kg, P>0.05) is 60 min. For the same compound, in the data set on Swiss mice [1] (hot plate, IP, test of 240 min), the “persistence of the significant difference in relation to saline” value is on record as “at the time of 120 minutes, there was no significant difference” and the “time at which statistically significant antinociceptive activity started, in relation to saline” value was 60 min. The “difference between peptide alone and peptide+naloxone (naloxone reversal)” value with Swiss mice [1] (hot plate, serial naloxone 4 mg/kg, later discontinued) is “no significant differences only at 210 minutes and 240 minutes”. Besides, the “activity after administration of naloxone was discontinued” value in the data set with Swiss mice [1] (hot plate, substance+naloxone group) was “returned to action”. In addition, in the data set on Swiss mice [1] (mouse, in vivo), the “cumulative effect over time (area below the curve)” value is “higher cumulative effect similar to morphine and Leu-encefaiina”; the “difference from Leu-enkephalin” value is recorded as “no statistically significant differences”. The “cumulative effect over time (area under the curve)” value with Swiss mice [2] (tail flick, compared with morphine and Leu-enkephalin) is “greater than morphine and similar to Leu-enkephalin”. In addition, in the data set on Swiss mice [2] (tail-flick, IP, Leu-enkephalin 19.3 mg/kg, P>0.05), the “time from which there was no significant difference from Leu-enkephalin (peptide positive control)” value is recorded as “no significant difference throughout the assay”. The “time at which statistically significant antinociceptive action started, in relation to saline” value in the data set on Swiss mice [2] (tail-flick, IP, dose equimolar to morphine 10 mg/kg, test of 240 min) was 90 min. The “time from which there was no significant difference from morphine (positive control)” value in the data set on Swiss mice [2] (tail-flick, IP, morphine 10 mg/kg) came out at 90 min. Besides, the “time up to which the significant antinociceptive action lasted, in relation to saline” value in the data set on Swiss mice [2] (tail-flick, IP, test of 240 min) was 240 min. Moreover, the “difference between peptide alone and peptide+naloxone (naloxone reversal)” value in the data set on Swiss mice [2] (tail-flick, serial hourly naloxone 4 mg/kg, P<0.001) is on record as “Except for the time of 30 min, there were significant differences”. In addition, the “activity profile of the group given substance+naloxone compared with saline” value with Swiss mice [2] (tail-flick) is on record as “no significant differences in activity profile”.
As for “YGGFL [Leu-enkephalin, reference compound]”, in the data set on Swiss mice [1] (mouse, in vivo), the “activity after administration of naloxone was discontinued” value is given as “activity has also been resumed” and the “activity profile of the group given substance+naloxone compared with saline” value is listed as “no significant differences in activity profile”. Also, in the data set on Swiss mice [2] (tail-flick), the “activity profile of the group given substance+naloxone compared with saline” value was “no significant differences in activity profile”.
As for YPFKWGGVPP [SEQ ID NO: 2], in the data set on trypsin, the “intensity of the major (precursor ion) peak during incubation with the enzyme” value is “will reduce its intensity”.
